# Test results reported in article PMC7413516, “Antidepressant-like activity and safety profile evaluation of 1H-imidazo[2,1-f]purine-2,4(3H,8H)-dione derivatives as 5-HT1A receptor partial agonists” (PLoS ONE, 2020).
# Values joined by “and” are separate entries in the source; they are usually repeats but may differ in a detail not shown here. Equal entries are not always repeated. Where two headings read alike, the source gives them in different places.
# Experiment: Pharmacokinetic study in mice, plasma and brain structures, LC/MS/MS
# Assay type: in vivo, Swiss albino mice
# Conditions: 0.625 mg/kg i.p.; for Kp: ratio of AUC values
# Experimental: Blood samples from the Swiss albino mice were collected at 0 (pre-dose), 5, 15, 30, 60, 120, 240 and 480 min after a compound administration. The blood samples and brain structures were collected under general anesthesia induced by i.p. injection of 50 mg/kg ketamine plus 8 mg/kg xylazine. The blood samples were taken into heparinized tubes, immediately centrifuged at 1000 × g for 10 min, and plasma was collected. The plasma samples and brain structures were immediately frozen at -30°C and -80°C, respectively.
# The plasma and tissue sample pretreatment procedure involved acetonitrile precipitation. A 5 μL aliquot of the IS working solution (100 ng/mL) was added to 50 μL of the collected mouse plasma sample, which was then vortex-mixed for 10 seconds. Thereafter, 200 μL of acetonitrile was added, vortexed during 20 min, and then centrifuged (1000 × g, 10 min). The supernatant (100 μL) was then transferred to insert placed in an autosampler vial, and a 10 μL volume of this was injected onto the HPLC column. Tissue samples were thawed before use, and whole hippocampus, striatum and frontal cortex were weighted and placed in a glass mortar and pestle tissue grinder and homogenized with an appropriate amount of phosphate buffer (pH 7.4) in 1:5 ratio. Afterward, 50 μL of tissue homogenates were transferred to new Eppendorf tubes and spiked with 5 μL of the internal standard working solution. All samples were stored on ice during the preparation process. This was followed by procedures like those described above.
# The LC/ESI-MS/MS experiments were performed on an Applied Biosystems/MDS Sciex (Concord, Ontario, Canada) API 2000 triple quadrupole mass spectrometer equipped with an electrospray (ESI) ionization interface. This instrument was coupled to an Agilent 1100 (Agilent Technologies, Waldbronn, Germany) LC system. Data acquisition and processing were accomplished using Sciex Analyst 1.4.2 data collection and integration software.
# An XBridge C18 (2.1 x 30 mm, 3.5 μm) analytical column (Waters, Milford, Massachusetts, USA) was used for compound separation. The temperatures of the column thermostat and the autosampler were set at 25°C and 10°C, respectively. The mobile phase consisted of a mixture of acetonitrile with addition of 0.1% formic acid (solvent A) and water with addition of 0.1% formic acid (solvent B) and was set at a flow rate of 0.6 mL/min. Starting amount of solvent A is 10%, isocratic elution from 0 to 3 min, and then gradient up to 90% of solvent A, and maintained to 10 min, and then gradient down to 10% of solvent A, and maintained to 15 min.
# The ion source parameters were as follows: ion spray voltage: 5500 V; nebulizer gas (gas 1): 20 psi; turbo gas (gas 2): 25 psi; temperature of the heated nebulizer: 400°C; curtain gas: 40 psi; collision gas: 6 psi. Mass spectra were acquired by SRM with precursor/predominant product ion transitions for each analyte. The mass spectral Q1→Q3 transitions monitored for AZ-853, AZ-861 and for IS (nebivolol), were m/z 453.9→235.1; 504.3→285.1 and 406.2→151.1, respectively. The peak widths of precursor and product ions were set to 0.7 full width half-height. Quantification was done via peak area ratio.
# Pharmacokinetic parameters were calculated by a non-compartmental approach from the average concentration values, using Phoenix WinNonlin software (Certara, Princeton, NJ 08540 USA). First order elimination rate constant (λz) was calculated by linear regression of time versus log concentration. Next, the area under the mean serum and tissue concentration versus time curve (AUC0→t) was estimated using the log-linear trapezoidal rule (1), where Ci is the plasma concentration measured at t1.
# AUC0→t=∑i=1n((Ci+Ci+1)/2)∙(ti+1−ti). (1)
# Area under the first-moment curve (AUMC0→t) was estimated by calculation of the total area under the first-moment curve using the Eq (2), where Ci is the plasma concentration measured at t1. AUMC0→t=∑i=1n((ti∙Ci+ti+1∙Ci+1)/2)∙(ti+1−ti). […]
# [1] = Swiss albino, mouse, frontal cortex, ip, 0.625 mg/kg, read-out: Concentration, frontal cortex (Mean)
# [2] = Swiss albino, mouse, frontal cortex, ip, 0.625 mg/kg, read-out: Concentration, frontal cortex (individual animals)
smiles,measurement,setting,value
"Cn1c(=O)c2c(nc3n(CCCCN4CCN(c5ccccc5F)CC4)ccn23)n(C)c1=O [AZ-853, 8-(4-(4-(2-fluorophenyl)piperazin-1-yl)butyl)-1,3-dimethyl-1H-imidazo[2,1-f]purine-2,4(3H,8H)-dione]",t0.5,,ca. 1.5 h
same,"t0.5, frontal cortex",,73.8 min
same,"t0.5, hippocampus",,140.8 min
same,"t0.5, striatum",,74.3 min
same,"Cmax, plasma",0.625 mg/kg,23.1 ng/mL
same,"t0.5, plasma",0.625 mg/kg,81 min and 81.6 min
same,"Concentration, frontal cortex (individual animals)","15 min, 0.625 mg/kg",252.14 ng/mL and 309.85 ng/mL and 312.66 ng/mL and 273.19 ng/mL and 294.14 ng/mL
same,"Concentration, hippocampus (individual animals)","15 min, 0.625 mg/kg",298.87 ng/mL and 267.61 ng/mL and 299.52 ng/mL and 245.78 ng/mL and 289.53 ng/mL
same,"Concentration, plasma (individual animals)","15 min, 0.625 mg/kg",13.52 ng/mL and 11.72 ng/mL and 14.74 ng/mL and 12.63 ng/mL and 15.85 ng/mL
same,"Concentration, striatum (individual animals)","15 min, 0.625 mg/kg",445.83 ng/mL and 472.52 ng/mL and 361.97 ng/mL and 346.18 ng/mL and 398.36 ng/mL
same,"Concentration, frontal cortex (individual animals)","30 min, 0.625 mg/kg",130.57 ng/mL and 174.17 ng/mL and 183.87 ng/mL and 124.72 ng/mL and 156.16 ng/mL
same,"Concentration, hippocampus (individual animals)","30 min, 0.625 mg/kg",132.11 ng/mL and 120.56 ng/mL and 144.33 ng/mL and 115.85 ng/mL and 113.92 ng/mL
same,"Concentration, plasma (individual animals)","30 min, 0.625 mg/kg",7.23 ng/mL and 6.19 ng/mL and 8.12 ng/mL and 7.41 ng/mL and 8.48 ng/mL
same,"Concentration, striatum (individual animals)","30 min, 0.625 mg/kg",208.14 ng/mL and 240.54 ng/mL and 302.57 ng/mL and 256.75 ng/mL and 253.77 ng/mL
same,"Concentration, frontal cortex (individual animals)","60 min, 0.625 mg/kg",87.55 ng/mL and 56.45 ng/mL and 81.65 ng/mL and 55.78 ng/mL and 58.24 ng/mL
same,"Concentration, hippocampus (individual animals)","60 min, 0.625 mg/kg",35.33 ng/mL and 56.52 ng/mL and 54.16 ng/mL and 46.72 ng/mL and 33.91 ng/mL
same,"Concentration, plasma (individual animals)","60 min, 0.625 mg/kg",2.33 ng/mL and 1.80 ng/mL and 1.95 ng/mL and 1.94 ng/mL and 1.84 ng/mL and 0.83 ng/mL
same,"Concentration, striatum (individual animals)","60 min, 0.625 mg/kg",49.55 ng/mL and 56.86 ng/mL and 68.93 ng/mL and 73.14 ng/mL and 66.26 ng/mL
same,"Concentration, frontal cortex (individual animals)","120 min, 0.625 mg/kg",32.55 ng/mL and 33.75 ng/mL and 20.15 ng/mL and 30.26 ng/mL and 26.34 ng/mL
same,"Concentration, hippocampus (individual animals)","120 min, 0.625 mg/kg",15.62 ng/mL and 13.22 ng/mL and 11.37 ng/mL and 10.24 ng/mL and 11.13 ng/mL
same,"Concentration, plasma (individual animals)","120 min, 0.625 mg/kg",4.86 ng/mL and 4.58 ng/mL and 4.97 ng/mL and 3.54 ng/mL and 3.31 ng/mL
same,"Concentration, striatum (individual animals)","120 min, 0.625 mg/kg",39.45 ng/mL and 31.62 ng/mL and 38.75 ng/mL and 47.66 ng/mL and 39.13 ng/mL
same,"Concentration, frontal cortex (individual animals)","240 min, 0.625 mg/kg",24.26 ng/mL and 26.65 ng/mL and 19.77 ng/mL and 20.56 ng/mL
same,"Concentration, hippocampus (individual animals)","240 min, 0.625 mg/kg",6.95 ng/mL and 9.12 ng/mL and 10.23 ng/mL and 6.87 ng/mL
same,"Concentration, plasma (individual animals)","240 min, 0.625 mg/kg",0.37 ng/mL and 0.35 ng/mL and 0.45 ng/mL and 0.53 ng/mL and 0.33 ng/mL and 0.26 ng/mL
same,"Concentration, striatum (individual animals)","240 min, 0.625 mg/kg",2.35 ng/mL and 3.41 ng/mL and 6.93 ng/mL and 8.25 ng/mL and 6.34 ng/mL
same,Kp,"Swiss albino, mouse, frontal cortex, ip, read-out: Brain structure-to-plasma concentration ratio, frontal cortex (FC/P)",18.1
same,AUC(0-t),"Swiss albino, mouse, frontal cortex, ip, read-out: AUC0→t, frontal cortex (converted)",321 ng·h/mL
same,MRT,"Swiss albino, mouse, frontal cortex, ip, read-out: MRT, frontal cortex (converted)",1.5 h
same,concentration at 5 min,[1],306 ng/mL
same,concentration at 5 min,[2],268 ng/mL
same,concentration at 15 min,"Swiss albino, mouse, frontal cortex, ip, 0.625 mg/kg, 15 min, read-out: Concentration, frontal cortex (Mean)",293 ng/mL
same,concentration at 15 min,"Swiss albino, mouse, frontal cortex, ip, 0.625 mg/kg, 15 min, read-out: Concentration, frontal cortex (individual animals)",318 ng/mL
same,concentration at 30 min,"Swiss albino, mouse, frontal cortex, ip, 0.625 mg/kg, 30 min, read-out: Concentration, frontal cortex (Mean)",156 ng/mL
same,concentration at 30 min,"Swiss albino, mouse, frontal cortex, ip, 0.625 mg/kg, 30 min, read-out: Concentration, frontal cortex (individual animals)",165 ng/mL
same,concentration at 60 min,"Swiss albino, mouse, frontal cortex, ip, 0.625 mg/kg, 60 min, read-out: Concentration, frontal cortex (Mean)",66 ng/mL
same,concentration at 60 min,"Swiss albino, mouse, frontal cortex, ip, 0.625 mg/kg, 60 min, read-out: Concentration, frontal cortex (individual animals)",56.3 ng/mL
same,concentration at 120 min,"Swiss albino, mouse, frontal cortex, ip, 0.625 mg/kg, 120 min, read-out: Concentration, frontal cortex (Mean)",27.5 ng/mL
same,concentration at 120 min,"Swiss albino, mouse, frontal cortex, ip, 0.625 mg/kg, 120 min, read-out: Concentration, frontal cortex (individual animals)",22.2 ng/mL
same,concentration at 240 min,"Swiss albino, mouse, frontal cortex, ip, 0.625 mg/kg, 240 min, read-out: Concentration, frontal cortex (Mean)",23.3 ng/mL
same,concentration at 240 min,"Swiss albino, mouse, frontal cortex, ip, 0.625 mg/kg, 240 min, read-out: Concentration, frontal cortex (individual animals)",20.8 ng/mL
same,concentration at 480 min,[1],14.6 ng/mL
same,concentration at 480 min,[2],18.6 ng/mL
same,Cmax,"Swiss albino, mouse, frontal cortex, ip, 0.625 mg/kg, read-out: Cmax, frontal cortex",306 ng/g
same,Tmax,"Swiss albino, mouse, frontal cortex, ip, 0.625 mg/kg, read-out: tmax, frontal cortex (converted)",5 min
same,Kp,"Swiss albino, mouse, hippocampus, ip, read-out: Brain structure-to-plasma concentration ratio, hippocampus (H/P)",11.9
same,AUC(0-t),"Swiss albino, mouse, hippocampus, ip, read-out: AUC0→t, hippocampus (converted)",210 ng·h/mL
same,MRT,"Swiss albino, mouse, hippocampus, ip, read-out: MRT, hippocampus (converted)",1.19 h
same,concentration at 5 min,"Swiss albino, mouse, hippocampus, ip, 0.625 mg/kg, read-out: Concentration, hippocampus (Mean)",191 ng/mL
